What was measured:
Type in all cases: in vivo
Conditions in all cases: foliar, compared to untreated control leaf disks, read-out: disease control
[1] = tested on: Puccinia recondita f. sp. tritici; assay: Puccinia recondita f. sp. tritici / wheat / leaf disc curative (brown rust)
Method: Puccinia recondita f. sp. tritici/Wheat/Leaf Disc Curative (Brown Rust) Wheat leaf segments cv. Kanzler are placed on agar in multiwell plates (24-well format). The leaf segments are inoculated with a spore suspension of the fungus. Plates were stored in darkness at 19° C. and 75% rh. The formulated test compound diluted in water was applied 1 day after inoculation.

Pyrenophora teres = Pyrenophora teres / barley / leaf disc preventative (net blotch)
Text: Pyrenophora teres/Barley/Leaf Disc Preventative (Net Blotch) Barley leaf segments cv. Hasso were placed on agar in a multiwell plate (24-well format) and sprayed with the formulated test compound diluted in water. The leaf segments were inoculated with a spore suspension of the fungus 2 days after application.

[2] = tested on: Puccinia recondita f. sp. tritici; assay: Puccinia recondita f. sp. tritici / wheat / leaf disc preventative (brown rust)
Text: Puccinia recondita f. sp. tritici/Wheat/Leaf Disc Preventative (Brown Rust) Wheat leaf segments cv. Kanzler were placed on agar in multiwell plates (24-well format) and sprayed with the formulated test compound diluted in water. The leaf disks were inoculated with a spore suspension of the fungus 1 day after application.

[3] = tested on: Blumeria graminis f. sp. tritici (Erysiphe graminis f. sp. tritici); assay: Blumeria graminis f. sp. tritici / wheat / leaf disc preventative (powdery mildew on wheat)
Outline: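 Preventative leaf-disc test: compound (200 ppm) was sprayed onto cv. Kanzler wheat segments, which were dusted with conidia from infected plants 1 day after application. After incubation at 20° C and 60% rh, disease control relative to untreated segments was rated 6-8 days after application.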

Measured: pest or weed control at 200 ppm

C=CCOc1nc(C)c(/N=C/N(C)CC)cc1Br [Q.393]
≥ 50%: [1] | Pyrenophora teres | [2] | [3]

CCN(C)/C=N/c1cc(Br)c(OC(C)Cc2ccccc2)nc1C (stereo not drawn) [Q.198]
≥ 50%: [1] | Pyrenophora teres | [2] | [3]

CCN(C)/C=N/c1cc(Br)c(OCCCCc2ccc(F)cc2)nc1C [Q.026]
≥ 50%: [1] | Pyrenophora teres | [2] | [3]

CCN(C)/C=N/c1cc(Br)c(OC2CCC(Cc3ccccc3)CC2)nc1C (stereo not drawn) [Q.119]
≥ 50%: [1] | Pyrenophora teres | [2] | [3]

CCN(C)/C=N/c1cc(Br)c(OCc2ccccc2S(C)(=O)=O)nc1C [Q.337]
≥ 50%: [1] | Pyrenophora teres | [2] | [3]

CCN(C)/C=N/c1cc(C2CC2)c(O[C@H]2CC[C@@H](C(C)C)CC2)nc1C [Q.249]
≥ 50%: [1] | Pyrenophora teres | [2] | [3]

CCN(C)/C=N/c1cc(Br)c(OCc2ccccc2Br)nc1C [Q.302]
≥ 50%: [1] | Pyrenophora teres | [2] | [3]

CCN(C)/C=N/c1cc(Br)c(O[C@H]2CC[C@@H](c3ccccc3)CC2)nc1C [Q.269]
≥ 50%: [1] | Pyrenophora teres | [2] | [3]

CCN(C)/C=N/c1cc(Br)c(OCC[C@H]2CC[C@@H](O)CC2)nc1C [Q.005]
≥ 50%: [1] | Pyrenophora teres | [2] | [3]

C=CCCC(C)Oc1nc(C)c(/N=C/N(C)CC)cc1Br (stereo not drawn) [Q.220]
≥ 50%: [1] | Pyrenophora teres | [2] | [3]

CCN(C)/C=N/c1cc(Br)c(OCc2ccccc2C(F)F)nc1C [Q.289]
≥ 50%: [1] | Pyrenophora teres | [2] | [3]

CCN(C)/C=N/c1cc(Br)c(OCc2ccccc2C#N)nc1C [Q.304]
≥ 50%: [1] | Pyrenophora teres | [2] | [3]

CCN(C)/C=N/c1cc(Br)c(OCC2CC=CCC2)nc1C (stereo not drawn) [Q.029]
≥ 50%: [1] | Pyrenophora teres | [2] | [3]

CCN(C)/C=N/c1cc(Br)c(OC(C)c2cccc(C(C)F)c2)nc1C (stereo not drawn) [Q.292]
≥ 50%: [1] | Pyrenophora teres | [2] | [3]

CCN(C)/C=N/c1cc(Br)c(OCCc2ccc(OC)cc2)nc1C [Q.011]
≥ 50%: [1] | Pyrenophora teres | [2] | [3]

CCN(C)/C=N/c1cc(Br)c(OCCCCc2ccc(OC)cc2)nc1C [Q.046]
≥ 50%: [1] | Pyrenophora teres | [2] | [3]

CCN(C)/C=N/c1cc(Br)c(OC(C)c2ccc3cccnc3c2)nc1C (stereo not drawn) [Q.242]
≥ 50%: [1] | Pyrenophora teres | [2] | [3]

Cc1nc(OC(C)c2cc(F)cc(F)c2)c(Br)cc1/N=C/N1CCCC1 (stereo not drawn) [Q.193]
≥ 50%: [1] | Pyrenophora teres | [2] | [3]

CCN(C)/C=N/c1cc(Br)c(OC(C)CCC2CC2)nc1C (stereo not drawn) [Q.357]
≥ 50%: [1] | Pyrenophora teres | [2] | [3]

CCN(C)/C=N/c1cc(Br)c(OC2CCCC(Oc3ccccn3)C2)nc1C (stereo not drawn) [Q.240]
≥ 50%: [1] | Pyrenophora teres | [2] | [3]

C=CCCCOc1nc(C)c(/N=C/N(C)CC)cc1Br [Q.034]
≥ 50%: [1] | Pyrenophora teres | [2] | [3]

CCN(C)/C=N/c1cc(Br)c(OC(C)CC(C)C)nc1C (stereo not drawn) [Q.392]
≥ 50%: [1] | Pyrenophora teres | [2] | [3]

CCN(C)/C=N/c1cc(Br)c(OCc2cccc(Br)c2)nc1C [Q.101]
≥ 50%: [1] | Pyrenophora teres | [2] | [3]

CCN/C=N/c1cc(Br)c(OCCCC(C)C)nc1C [Q.004]
≥ 50%: [1] | Pyrenophora teres | [2] | [3]

CCN(C)/C=N/c1cc(Br)c(OCCC(C)C)nc1C [Q.391]
≥ 50%: [1] | Pyrenophora teres | [2] | [3]

CCN(C)/C=N/c1ccc(OC(C)c2cc(C)cc(C)c2)nc1C (stereo not drawn) [Q.358]
≥ 50%: [1] | Pyrenophora teres | [2] | [3]

CCc1nc(OCc2ccccc2C)c(Br)cc1/N=C/N(C)CC [Q.398]
≥ 50%: [1] | Pyrenophora teres | [2] | [3]

CCN(C)/C=N/c1cc(Br)c(OC2CCC(C)C(C)CC2)nc1C (stereo not drawn) [Q.308]
≥ 50%: [1] | Pyrenophora teres | [2] | [3]

CCN(C)/C=N/c1cc(Br)c(OCc2cccc(C(C)F)c2)nc1C (stereo not drawn) [Q.291]
≥ 50%: [1] | Pyrenophora teres | [2] | [3]

CCN(C)/C=N/c1cc(Br)c(OC2CCN(C(=O)C(C)C)CC2)nc1C [Q.162]
≥ 50%: [1] | Pyrenophora teres | [2] | [3]

CCN(C)/C=N/c1cc(I)c(O[C@H]2CC[C@@H](C(C)C)CC2)nc1C [Q.180]
≥ 50%: [1] | Pyrenophora teres | [2] | [3]

CCN(C)/C=N/c1cc(Br)c(OC(C)c2cccc(CCc3ccccc3)c2)nc1C (stereo not drawn) [Q.329]
≥ 50%: [1] | Pyrenophora teres | [2] | [3]

CCN(C)/C=N/c1ccc(OC(C)Cc2ccccc2C)nc1C (stereo not drawn) [Q.354]
≥ 50%: [1] | Pyrenophora teres | [2] | [3]

CCN(C)/C=N/c1cc(Br)c(OCC2CCc3ccccc3C2)nc1C (stereo not drawn) [Q.224]
≥ 50%: [1] | Pyrenophora teres | [2] | [3]

CCN(C)/C=N/c1cc(Br)c(OC2CCS(=O)(=O)CC2)nc1C [Q.161]
≥ 50%: [1] | Pyrenophora teres | [2] | [3]

CCN(C)/C=N/c1cc(Br)c(OC2CCC(C(C)C)CC2)nc1C (stereo not drawn) [Q.334]
≥ 50%: [1] | Pyrenophora teres | [2] | [3]

CCN(C)/C=N/c1cc(Br)c(OC2Cc3ccc(C)cc3C2)nc1C (stereo not drawn) [Q.243]
≥ 50%: [1] | Pyrenophora teres | [2] | [3]

CCN(C)/C=N/c1cc(Br)c(OCCCc2ccc(OC)cc2)nc1C [Q.014]
≥ 50%: [1] | Pyrenophora teres | [2] | [3]

CCN(C)/C=N/c1cc(Br)c(OC2Cc3ccc(OCc4ccccc4)cc3C2)nc1C (stereo not drawn) [Q.168]
≥ 50%: [1] | Pyrenophora teres | [2] | [3]

C#Cc1cc(/N=C/N(C)CC)c(C)nc1O[C@H]1CC[C@@H](C(C)C)CC1 [Q.250]
≥ 50%: [1] | Pyrenophora teres | [2] | [3]

CCN(C)/C=N/c1cc(Br)c(OCc2ccccc2[S+](C)[O-])nc1C (stereo not drawn) [Q.336]
≥ 50%: [1] | Pyrenophora teres | [2] | [3]

CCN(C)/C=N/c1cc(Br)c(OC2CCN(S(=O)(=O)N(C)C)CC2)nc1C [Q.164]
≥ 50%: [1] | Pyrenophora teres | [2] | [3]

From patent US9326513B2, “Fungicidal compositions” (Syngenta Participations AG, priority 2011, dated 2016)
